Tests used:
[1] = Wash test in liquid detergent: odour intensity and quality on line-dried fabric, assessed by expert panel; settings: for Odour intensity on dried fabric over time (FIG. 1): 0.2% by weight in liquid detergent, 40° C. wash, fresh dried, after 24 hours and after four days, scale 0 to 5; for Fragrance score after 1 day / Fragrance score after 3 days: line-dried cotton/elastane fabric, panel of 4-6 experts, scale 0 (odourless) to 5 (extremely strong)
Method: A Nitrone precursor (Sample A: (E)-2-methyl-N-(4-methylbenzyl)undecan-1-imine oxide, compound of Example 1) has been compared to the aldehyde (Sample B: 2-methyl undecanal) in a wash test. • 1) Sample preparation: 0.2% by weight of the precursor or the aldehyde have been incorporated into unperfumed liquid detergent base by magnetic stirring at room temperature for 24 h., • 2) Wash test: A 40° C. machine wash cycle was performed using 55 g of the liquid detergent sample containing the test material and odour-neutral cotton/elastan mixed fabric T-shirts. […]
Further compounds of formula (I) have been tested in liquid detergent. • 1) Sample preparation: 0.2% wt/wt of the test material was incorporated in unperfumed liquid detergent base by magnetic stirring at room temperature for 24 h. • 2) Wash test: a 40° C. machine wash cycle was performed using 55 g of the liquid detergent sample containing the test material and odour-neutral cotton/elastane mixed fabric T-shirts. The wet fabric is line-dried and odour intensity and quality are assessed by a panel of 4-6 experts after 1 and 3 days on an intensity scale of 0 (odourless) to 5 (extremely strong).

[2] = Biodegradability by manometric respirometry test (OECD guideline No. 301F); settings: OECD 301F manometric respirometry; oxygen consumption of theory
From the text: The results of the biodegradability assessment by the manometric respirometry test (OECD guideline for the testing of materials No. 301F, Paris 1992) are summarized in Table 2.
A compound can be classified biodegradable, if it reaches the pass level of 60% oxygen consumption of theory required for complete mineralization.
It is readily biodegradable, if the pass level is reached within 10 days within the 28-day period of the test. The 10-day window begins when the degree of biodegradation has reached 10%.
If the pass level is obtained after 28-day period of the test, the compound can be classified as inherently biodegradable.

[3] = Stability test in liquid detergent base by quantitative HPLC with UV detection; format: physicochemical
Method: Example 61: Stability test in liquid detergentThe stability of (E)-N-isopropyl-2-methylundecan-1-imine oxide (compound of Example 9) in a liquid detergent base was assessed by quantitative HPLC with UV detection.
A liquid detergent sample as prepared above containing the test substance was sampled at TO and after 30 days storage at 37° C. (300 mg diluted with 10 mL acetonitrile/high purity water 1:1), and the concentration of the precursor was assessed by quantitative HPLC-UV using an external calibration curve.

[4] = Application in shampoo: odour intensity and quality on dry hair swatches, assessed by expert panel; settings: 0.2% wt/wt in shampoo
Method: • 1) Sample preparation: 0.2% wt/wt of (E)-N-isopropyl-2-methylundecan-1-imine oxide (compound of example 9) was incorporated in unperfumed shampoo base by magnetic stirring at room temperature for 24 h. • 2) Wash test: Hair swatches were wetted with warm tap water, then 2 mL of the above prepared shampoo sample was applied to the hair swatches lathering with gloves delicately for 30 seconds. The hair swatches were rinsed with cold tap water for 20 seconds and excess water was removed by squeezing the hair swatches between two fingers. The hair swatches were left to dry in open air. Their odour intensity and quality was assessed by a panel of 4-6 experts after 1 and 2 days on an intensity scale of 0 (odourless) to 5 (extremely strong). • 3) Results: After 1 day, the fragrance score was 3.2, after 2 days, the fragrance score was 3.3.

[5] = 0.2% wt/wt in liquid detergent, 40° C. machine wash

Compound | Biodegradation in % [2] [%] | Fragrance score after 1 day [1, 5] | Fragrance score after 3 days [1, 5] | other results
CCCCCCCCCC(C)/C=[N+](/[O-])Cc1ccc(C)cc1 (stereo not shown) [Example 1, (E)-2-methyl-N-(4-methylbenzyl)undecan-1-imine oxide] | 83 | – | – | Odour intensity on dried fabric over time (FIG. 1) [1]: increases with time and is the highest after four days
CCCCCCCCCC(C)/C=[N+](/[O-])C(C)C (stereo not shown) [Example 9, (E)-N-isopropyl-2-methylundecan-1-imine oxide] | 70 | 2.4 | 3.2 | Stability in liquid detergent (judgement) ([3]; 30 days storage at 37° C., alkaline liquid detergent): stable; Concentration of the precursor in liquid detergent, initial ([3]; liquid detergent base, T0, HPLC-UV): 0.21 weight %; Concentration of the precursor in liquid detergent after storage ([3]; liquid detergent base, after 30 days storage at 37° C., HPLC-UV): 0.18 weight %; Perceived odour on dry hair [4]: clean, aldehydic; Fragrance score after 1 day ([4]; panel of 4-6 experts, scale 0 (odourless) to 5 (extremely strong), after 1 day): 3.2; Fragrance score after 2 days ([4]; panel of 4-6 experts, scale 0 (odourless) to 5 (extremely strong), after 2 days): 3.3
CC1=C(/C=C/C(C)=[N+](/[O-])C(C)C)C(C)(C)CCC1 [Example 10, (2E,3E)-N-isopropyl-4-(2,6,6-trimethylcyclohex-1-en-1-yl)but-3-en-2-imine oxide] | – | 2.3 | 2.2 | Odour on dry fabric ([1]; 0.2% wt/wt in liquid detergent, 40° C. machine wash, line-dried fabric, odour quality by panel): ionone
CCCCCCCCC/C=C/C=[N+](\[O-])Cc1ccccc1 [Example 49, (1Z,2E)-N-benzyldodec-2-en-1-imine oxide] | – | 2.9 | 3.0 | –
CCCCCCCCCC(C)/C=[N+](/[O-])Cc1ccc(OC)cc1 (stereo not shown) [Example 58, (E)-N-(4-methoxybenzyl)-2-methylundecan-1-imine oxide] | 76 | – | – | –
CCCCCCCCCC(C)C=O (stereo not shown) [Sample B, 2-methyl undecanal, reference compound] | – | – | – | Odour intensity on dried fabric over time (FIG. 1) [1]: relatively high on the freshly dried sample and decreases with time

Second part, led by results:

Biodegradation in % [2] [%] | Compound | Fragrance score after 1 day [1, 5] | Fragrance score after 3 days [1, 5] | other results
87 | CCCCCCCCCC(C)/C=[N+](/[O-])Cc1ccccc1 (stereo not shown) [Example 5, (E)-N-benzyl-2-methylundecan-1-imine oxide] | – | – | –
74 | CCCCCCCCCC(C)/C=[N+](/[O-])C1CCCCC1 (stereo not shown) [Example 6, (E)-N-cyclohexyl-2-methylundecan-1-imine oxide] | – | – | –
89 | CCCCCCCCCC(C)/C=[N+](\C)[O-] (stereo not shown) [Example 13, (E)-N,2-dimethylundecan-1-imine oxide] | – | – | –
75 | CCCCCCCCCC(C)/C=[N+](/[O-])CC(C)CCC (stereo not shown) [Example 15, (E)-2-methyl-N-(2-methylpentyl)undecan-1-imine oxide] | – | – | –

Source: patent US20240294470A1, “FRAGRANCE COMPOUNDS” (Givaudan SA, priority 2021, published 2024)
